Test results published in ChEMBL document CHEMBL1140774, “Sterol C24-methyltransferase: mechanistic studies of the C-methylation reaction with 24-fluorocycloartenol” (Bioorg Med Chem Lett, 2008).

Test system: Glycine max
Assay: Activity of soybean recombinant SMT1

CC(C)=CCC[C@@H](C)[C@H]1CC[C@@]2(C)[C@@H]3CC[C@H]4C(C)(C)[C@@H](O)CC[C@@]45C[C@@]35CC[C@]12C
Km: 30 µM
kcat: 0.01 s⁻¹
